# Measurements published in the supplement of paper PMC10307832.
# Experiments:
# Experiment in all cases: relative viability (nuclei count vs DMSO), 5 days (fraction); higher = more cells survive
# [1] = compound: C(C(=O)C(=O)O)Br [Bromopyruvate] + Cc1cc(Nc2cc(N3CCN(C)CC3)nc(Sc3ccc(NC(=O)C4CC4)cc3)n2)n[nH]1 [Tozasertib] (partner 0.1 µM)
# How it was run: (§1)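 Lung cancer cell lines in 1536-well plates were dosed by pin tool the day after seeding, either with one drug alone or with a fixed anchor-drug dose plus five library-drug doses (not always all listed) in √10 steps. After 5 days, cells were fixed and their nuclei stained in one step (final 0.05% Triton X-100, 1% formaldehyde, 1 ug/ml Hoechst), then counted on 4× images. Relative viability is the nuclei count in treated wells divided by that in vehicle wells. Values are medians of duplicate plates.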
# [2] = compound: CC(O)(CS(=O)(=O)c1ccc(F)cc1)C(=O)Nc1ccc(C#N)c(C(F)(F)F)c1 [Bicalutamide] + CC1(C)CCC(c2ccc(Cl)cc2)=C(CN2CCN(c3ccc(C(=O)NS(=O)(=O)c4ccc(N[C@H](CCN5CCOCC5)CSc5ccccc5)c(S(=O)(=O)C(F)(F)F)c4)cc3)CC2)C1 [Navitoclax] (partner 0.5 µM)
# How it was run: as §1
# [3] = compound: CC(O)(CS(=O)(=O)c1ccc(F)cc1)C(=O)Nc1ccc(C#N)c(C(F)(F)F)c1 [Bicalutamide] + C[C@@H](Oc1cc(-c2cnn(C3CCNCC3)c2)cnc1N)c1c(Cl)ccc(F)c1Cl [Crizotinib] (partner 1 µM)
# How it was run: as §1
# [4] = compound: CC(O)(CS(=O)(=O)c1ccc(F)cc1)C(=O)Nc1ccc(C#N)c(C(F)(F)F)c1 [Bicalutamide] + Nc1nc2[nH]cc(CCc3ccc(C(=O)N[C@@H](CCC(=O)O)C(=O)O)cc3)c2c(=O)[nH]1 [Pemetrexed] (partner 0.2 µM)
# How it was run: as §1
Cell Line,relative viability ([1]; first compound 1 µM),relative viability ([1]; first compound 3.162 µM),relative viability ([1]; first compound 10 µM),relative viability ([1]; first compound 31.62 µM),relative viability ([1]; first compound 100 µM),relative viability ([2]; first compound 0.08 µM),relative viability ([2]; first compound 0.253 µM),relative viability ([2]; first compound 0.8 µM),relative viability ([2]; first compound 2.53 µM),relative viability ([3]; first compound 0.08 µM),relative viability ([3]; first compound 0.253 µM),relative viability ([3]; first compound 0.8 µM),relative viability ([3]; first compound 2.53 µM),relative viability ([4]; first compound 0.08 µM),relative viability ([4]; first compound 0.253 µM),relative viability ([4]; first compound 0.8 µM),relative viability ([4]; first compound 2.53 µM)
NCI-H2087,0.237,0.284,0.234,0.269,0.258,1.15,1.09,1.1,0.974,1,0.993,0.887,0.971,0.684,0.662,0.695,0.613
NCI-H838,0.268,0.291,0.305,0.242,0.293,1.1,1.07,1.25,0.854,0.823,0.762,0.833,0.602,0.272,0.232,0.261,0.243
NCI-H460,0.432,0.485,0.426,0.424,0.335,1.13,1.1,1.39,1.22,0.896,0.798,1.28,0.825,0.0574,0.0589,0.0592,0.0687
LOU-NH91,0.729,0.643,0.654,0.685,0.672,0.676,0.545,0.865,0.818,0.726,0.681,0.766,0.744,0.429,0.379,0.39,0.378
NCI-H322M,0.433,0.546,0.495,0.461,0.484,1.3,1.18,1.28,1.22,1.05,0.858,1.16,0.868,0.594,0.553,0.635,0.709
NCI-H520,0.467,0.448,0.395,0.422,0.328,0.97,1.1,1.16,1.13,0.836,0.681,0.93,0.577,0.846,0.635,0.81,0.635
NCI-H1734,0.243,0.247,0.307,0.244,0.216,0.862,0.719,1.13,0.786,0.667,0.553,0.798,0.616,0.428,0.405,0.455,0.393
LXF-289,0.184,0.179,0.213,0.152,0.172,0.951,0.952,0.999,0.931,0.815,0.79,0.797,0.807,0.929,0.815,0.916,0.949
H3255,0.613,0.771,0.686,0.702,0.829,0.524,0.489,0.631,0.4,0.963,0.845,1.05,0.719,0.584,0.536,0.62,0.571
201T,0.916,0.954,0.99,1.02,0.982,1.18,1.24,1.18,1.22,1.04,0.942,1.01,1.06,0.306,0.33,0.328,0.36
NCI-H2228,0.241,0.252,0.239,0.284,0.248,0.636,0.863,0.856,0.959,0.443,0.52,0.754,0.463,0.343,0.351,0.334,0.323
HOP-62,0.39,0.386,0.381,0.339,0.351,1.03,1.12,1.03,0.982,0.807,0.936,1.33,1,0.371,0.289,0.277,0.327
CAL-12T,0.362,0.589,0.242,0.294,0.308,1.22,1.39,1.35,1.09,0.785,0.556,0.67,0.396,1.34,1.06,1.28,1.14
NCI-H596,0.83,0.943,1.1,0.878,0.412,1.03,0.847,1.24,1.15,0.898,1.51,1.08,1.04,0.489,0.459,0.56,0.552
NCI-H1755,0.59,0.568,0.495,0.702,0.693,0.98,0.956,1.02,0.961,0.901,0.803,0.849,0.791,0.386,0.379,0.434,0.477
NCI-H2085,0.821,0.917,0.84,0.558,0.311,1.19,1.17,1.22,0.902,0.904,0.822,0.816,0.745,0.837,0.708,0.912,0.775
NCI-H2023,0.31,0.4,0.348,0.482,0.39,1.08,1.04,1.06,0.945,0.691,0.601,0.679,0.462,0.267,0.175,0.279,0.223
